This note sets out measurements from patent US20240010641A1, “N-Linked Glycosylation Inhibitors and Methods of Using Same” (YALE UNIVERSITY, priority 2020, published 2024).

A word on the AC50: it is the concentration giving half of the maximal activity seen.

What all share (assay type): cell-based
Experiment [1] deals with N-linked glycosylation (OST) in CHO-ER-LucT cells. The experiment in a line: CHO-ER-LucT luminescence assay for inhibition of N-linked glycosylation. As to conditions: for Emax: 24 h, [compound's fold change-1.0 (DMSO)]/[NGI-1 fold change-1.0 (DMSO)]*100, read-out: Max activity (% NGI-1); for AC50: CHO-ER-LucT cells, 24 hrs exposure, seven-point dose dilution, luminescence. The method, then: The CHO-ER-LucT cells have been previously described (Contessa et al., 2010, Clinical Cancer Research, 16(12):3205-14) and are used for testing analog IC50 for inhibition of N-linked glycosylation in 96 or 384 well plate format. In these cells induction of luminescence is dependent on inhibition of glycosylation (and OST inhibition), and is determined after 24 hrs of exposure to the analog following the addition of luciferin substrate. The luminescent signal is then quantified using standard plate readers that detect luminescence (e.g., Biotek synergy). Experiments are performed over a seven-point dose dilution to generate dose response data and to identify IC50 values and maximal activity compared to controls. Data is transformed to log 10 values to generate a sigmoidal shaped dose response curve and fitted using nonlinear regression (curve fit) in GraphPad Prism7.
All HL compounds were tested in CHO-ER-LucT cells. IC50 (AC50) was estimated in following method: Concentration X is converted to logarithm (log10) to generate sigmoidal shape curve and dose response curve is generated using Nonlinear regression (curve fit) in Prism. EC50 (AC50) is calculated using log(agonist) vs response-(three parameters)] which uses standard Hill slope (=1).
Max activity: [compound's fold change−1.0 (DMSO)]/[NGI−1 fold change−1.0 (DMSO)]*100(%) (Eq. 1)

In experiment [2] the test system is N-linked glycosylation in D54. The experiment in a line: ER-LucT type AC50 determination in D54 cells (NGI-1 only). The settings on record: Homo sapiens.
The subject of experiment [3] is protein glycosylation in HEK293 cells. The experiment in a line: Western blots of protein glycoforms after OST inhibitor treatment, HEK293 cells. As to conditions: 24 hrs, Western blot, FIG. 1. On the procedure: FIG. 1 illustrates Western blots of protein glycoforms after OST inhibitor treatment in vitro. HEK293 cells were treated with each inhibitor for 24 hrs at indicated concentrations. Changes in glycosylation are shown by reduced molecular weight.
(§1) Inhibition of glycosylation is then confirmed by analysis of glycoprotein size using western blots. Increased gel mobility of proteins such as the EGFR or Halo3N indicate loss of protein glycosylation (FIGS. 1-2).
For orientation: Immunoblotting shows a protein as a band on a membrane.

Experiment [4] has as its system STT3A (HEK293 STT3B KO cells). The experiment in a line: Western blots of protein glycoforms, HEK293 cells with knockout of STT3B. As to conditions: 24 hrs, Western blot, FIG. 2, indicating enhanced specificity for STT3A. On the procedure:
FIG. 2 illustrates Western blots of protein glycoforms after OST inhibitor treatment in vitro using HEK293 cells with knockout (KO) of either STT3A or STT3B. Cells were treated with each inhibitor for 24 hrs at indicated concentrations. Changes in glycosylation are shown by reduced molecular weight.
as §1

As to `Cc1cnc(NC(=O)c2cc(S(=O)(=O)N(C)C)ccc2N2CCCC2)s1` [NGI-1, 5-(N,N-Dimethylsulfamoyl)-N-(5-methylthiazol-2-yl)-2-(pyrrolidin-1-yl)benzamide, reference compound], in experiment [1], the Emax amounted to 100% and the half-maximal activity concentration (AC50) was determined as 1110 nM. In experiment [2], this compound yielded an AC50 of 712 nM.

As to `CCc1cnc(NC(=O)c2cc(S(=O)(=O)N3CCOCC3)ccc2N(C)C2CCCC2)s1` [Example 4, 2-(cyclopentyl(methyl)amino)-N-(5-ethylthiazol-2-yl)-5-(morpholinosulfonyl)benzamide], the “Changes in glycosylation (reduced molecular weight of protein glycoforms)” value in experiment [3] is reported as “more potent effect”. Also, in experiment [1], the Emax came to 206% and the AC50 amounted to 87 nM. The “Effect on glycosylation in STT3B KO cells” value in experiment [4] was “more potent effect”.

For the compound `CCc1cnc(NC(=O)c2cc(S(=O)(=O)N3CCOCC3)ccc2N(C)CC2CC2)s1` [Example 3, 2-((cyclopropylmethyl)(methyl)amino)-N-(5-ethylthiazol-2-yl)-5-(morpholinosulfonyl)benzamide], in experiment [3], the “Changes in glycosylation (reduced molecular weight of protein glycoforms)” value was “more potent effect”. In experiment [1], the Emax was determined as 215% and the AC50 amounted to 59 nM. Besides, the “Effect on glycosylation in STT3B KO cells” value in experiment [4] is “more potent effect”.

Take `Cc1nc(NC(=O)c2cc(S(=O)(=O)N(C)C)ccc2N2CCC(F)(F)C2)sc1C` [Example 34, 2-(3,3-difluoropyrrolidin-1-yl)-5-(N,N-dimethylsulfamoyl)-N-(4,5-dimethylthiazol-2-yl)benzamide]: in experiment [1], the Emax was 76.9% and the AC50 is 738 nM.

Take `Cc1cnc(NC(=O)c2cc(S(=O)(=O)N(C)C)ccc2N(C)C2CCCC2)s1` [Example 17, 2-(cyclopentyl(methyl)amino)-5-(N,N-dimethylsulfamoyl)-N-(5-methylthiazol-2-yl)benzamide]: in experiment [1], the Emax was found to be 102% and the AC50 was 361 nM.

`CCc1cnc(NC(=O)c2cc(S(=O)(=O)N(C)C)ccc2N2CCC(F)(F)C2)s1` [Example 37, 2-(3,3-difluoropyrrolidin-1-yl)-5-(N,N-dimethylsulfamoyl)-N-(5-ethylthiazol-2-yl)benzamide]: in experiment [1], the Emax amounted to 126% and the AC50 came to 565 nM.

For `Cc1nc(NC(=O)c2cc(S(=O)(=O)N(C)C)cnc2N(C)C2CCCC2)sc1C` [Example 21, 2-(cyclopentyl(methyl)amino)-5-(N,N-dimethylsulfamoyl)-N-(4,5-dimethylthiazol-2-yl)nicotinamide], in experiment [1], the Emax worked out at 101% and the AC50 is 970 nM.

With `CCc1cnc(NC(=O)c2cc(S(=O)(=O)N3CCOCC3)ccc2N2CCC(F)(F)C2)s1` [Example 36, 2-(3,3-difluoropyrrolidin-1-yl)-N-(5-ethylthiazol-2-yl)-5-(morpholinosulfonyl)benzamide], in experiment [1], the Emax was 137% and the AC50 was 591 nM.

Consider `Cc1nc(NC(=O)c2cc(S(=O)(=O)N3CCOCC3)ccc2N2CCC(F)(F)C2)sc1C` [Example 38, 2-(3,3-difluoropyrrolidin-1-yl)-N-(4,5-dimethylthiazol-2-yl)-5-(morpholinosulfonyl)benzamide], for which, in experiment [1], the Emax came out at 42.8% and the AC50 turned out to be 748 nM.

As for `Cc1ccc(NC(=O)c2cc(S(=O)(=O)N(C)C)cnc2N2CCCC2)cc1`, in experiment [1], the Emax was found to be 14.9% and the AC50 turned out to be 94500 nM.

Turning to `CCc1cnc(NC(=O)c2cc(S(=O)(=O)CC3CC3)ccc2N(C)C2CCCC2)s1`, in experiment [1], the Emax is 89.9% and the AC50 stood at 1530 nM.

Take `Cc1nc(NC(=O)c2cc(S(=O)(=O)N(C)C)ccc2N(C)C2CC2)sc1C`: in experiment [1], the Emax was determined as 43.9% and the AC50 is 3440 nM.

In the case of `Cc1cnc(NC(=O)c2cc(S(=O)(=O)N(C)C)cc(F)c2N2CCCC2)s1`, in experiment [1], the Emax was determined as 114% and the AC50 stood at 36900 nM.

Regarding `Cc1ccc(NC(=O)c2cc(S(=O)(=O)N(C)C)ccc2N2CCC(F)(F)C2)cc1` [Example 33, 2-(3,3-difluoropyrrolidin-1-yl)-5-(N,N-dimethylsulfamoyl)-N-(p-tolyl)benzamide], in experiment [1], the Emax turned out to be 67.5% and the AC50 stood at 5840 nM.

In the case of `CCc1cnc(NC(=O)c2nc(S(=O)(=O)N3CCOCC3)ccc2N(C)CC2CC2)s1` [Example 28, 3-((cyclopropylmethyl)(methyl)amino)-N-(5-ethylthiazol-2-yl)-6-(morpholinosulfonyl)picolinamide], in experiment [1], the Emax was determined as 33.3% and the concentration at half-maximal activity (AC50) was found to be 7920 nM.

As for `CCc1cnc(NC(=O)c2cc(S(=O)(=O)N(C)C)ccc2N(C)C2CCC2)s1` [Example 15, 2-(cyclobutyl(methyl)amino)-5-(N,N-dimethylsulfamoyl)-N-(5-ethylthiazol-2-yl)benzamide], in experiment [1], the Emax turned out to be 141% and the AC50 is 252 nM.

Take `CCc1cnc(NC(=O)c2cc(S(=O)(=O)N(C)C)cnc2N(C)C2CCCC2)s1` [Example 25, 2-(cyclopentyl(methyl)amino)-5-(N,N-dimethylsulfamoyl)-N-(5-ethylthiazol-2-yl)nicotinamide]: in experiment [1], the Emax is 108% and the AC50 is 309 nM.

Turning to `CCc1cnc(NC(=O)c2cc(S(=O)(=O)N3CCOCC3)nnc2N(C)CC2CC2)s1` [Example 27, 3-((cyclopropylmethyl)(methyl)amino)-N-(5-ethylthiazol-2-yl)-6-(morpholinosulfonyl)pyridazine-4-carboxamide], in experiment [1], the Emax is 13.3% and the AC50 amounted to 115 nM.

Turning to `CCc1cnc(NC(=O)c2cc(S(=O)(=O)N(C)C)ccc2N(C)C)s1`, in experiment [1], the Emax was found to be 46.1% and the AC50 turned out to be 6850 nM.

Turning to `Cc1nc(NC(=O)c2cc(S(=O)(=O)N3CCN(C)CC3)ccc2N(C)CC2CC2)sc1C`, in experiment [1], the Emax turned out to be 76.9% and the half-maximal activity concentration (AC50) was 2200 nM.

`Cc1nc(NC(=O)c2cc(S(=O)(=O)N(C)C)c(F)cc2N2CCCC2)sc1C` [Example 32, 5-(N,N-dimethylsulfamoyl)-N-(4,5-dimethylthiazol-2-yl)-4-fluoro-2-(pyrrolidin-1-yl)benzamide]: in experiment [1], the Emax was determined as 52.6% and the AC50 worked out at 3840 nM.

As for `Cc1nc(NC(=O)c2cc(S(=O)(=O)N3CCOCC3)ccc2N(C)CC2CC2)sc1C` [Example 10, 2-((cyclopropylmethyl)(methyl)amino)-N-(4,5-dimethylthiazol-2-yl)-5-(morpholinosulfonyl)benzamide], in experiment [1], the Emax is 88.7% and the AC50 was determined as 128 nM.

For the compound `Cc1sc(NC(=O)c2cc(S(=O)(=O)N3CCOCC3)ccc2N(C)CC2CC2)nc1-c1ccccc1` [Example 19, 2-((cyclopropylmethyl)(methyl)amino)-N-(5-methyl-4-phenylthiazol-2-yl)-5-(morpholinosulfonyl)benzamide], in experiment [1], the Emax came out at 66.2% and the AC50 was 563 nM.

Turning to `Cc1nc(NC(=O)c2cc(S(=O)(=O)N(C)C)ccc2N(C)C)sc1C`, in experiment [1], the Emax was found to be 33.9% and the AC50 was 27900 nM.
